# Reference: patent US20160280736A1, “CYCLIC PEPTIDE COMPOUND, AND PREPARATION METHOD, PHARMACEUTICAL COMPOSITION AND USE THEREOF” (HANGZHOU GUANYU BIO-MEDICAL CO., LTD., priority 2013, published 2016)
# Where two headings read alike, the source gives them in different places.
# Experiments:
# [1] = biological target: T1, HDAC7 (Homo sapiens, UniProt Q8WUI4); test: HDAC biochemical activity measurement (fluorescent substrate deacetylation); settings: HDAC7 enzyme, 37°, 30 minutes
# T1 sequence (Q8WUI4 1-952): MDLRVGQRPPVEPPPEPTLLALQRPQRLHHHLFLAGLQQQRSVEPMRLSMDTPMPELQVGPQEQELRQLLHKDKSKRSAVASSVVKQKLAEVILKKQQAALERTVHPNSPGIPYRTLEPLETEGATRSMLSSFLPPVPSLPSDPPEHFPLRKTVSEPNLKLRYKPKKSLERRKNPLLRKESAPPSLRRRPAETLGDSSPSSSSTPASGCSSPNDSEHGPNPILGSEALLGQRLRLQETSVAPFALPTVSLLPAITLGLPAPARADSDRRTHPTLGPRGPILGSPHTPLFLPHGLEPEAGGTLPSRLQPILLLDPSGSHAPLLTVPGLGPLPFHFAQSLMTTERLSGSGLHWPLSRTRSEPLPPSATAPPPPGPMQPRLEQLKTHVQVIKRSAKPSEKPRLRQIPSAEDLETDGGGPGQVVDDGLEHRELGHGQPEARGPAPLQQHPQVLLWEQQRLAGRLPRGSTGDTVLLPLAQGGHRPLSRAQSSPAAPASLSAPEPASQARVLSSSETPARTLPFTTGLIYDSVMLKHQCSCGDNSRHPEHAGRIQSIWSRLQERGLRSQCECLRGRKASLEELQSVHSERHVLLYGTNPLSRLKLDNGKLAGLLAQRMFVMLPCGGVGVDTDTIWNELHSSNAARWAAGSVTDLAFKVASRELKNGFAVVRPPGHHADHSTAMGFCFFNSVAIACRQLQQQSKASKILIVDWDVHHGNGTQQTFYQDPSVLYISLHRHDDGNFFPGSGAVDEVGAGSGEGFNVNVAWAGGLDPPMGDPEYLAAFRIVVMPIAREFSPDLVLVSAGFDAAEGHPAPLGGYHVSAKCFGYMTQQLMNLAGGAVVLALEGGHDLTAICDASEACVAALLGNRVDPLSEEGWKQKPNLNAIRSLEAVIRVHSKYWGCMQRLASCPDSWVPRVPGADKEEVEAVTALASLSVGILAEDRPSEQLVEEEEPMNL
# Description: Measurement principle: The chemical activity of the compound is determined according to the degree of deacetylation inhibition of the HDAC enzyme. […] After the substrate containing an acetylated lysine side chain and HDAC enzyme are labeled with a fluorescent label, the fluorescent substrate is de acetyl. The fluorescent labeled substrate is cleaved by the enzyme, and the fluorescent substance is released, which generates 460 nm emission light under the excitation of 360 nm light.
# (§9) Specific steps: HDAC substrate was diluted with reaction buffer to 200M (reaction concentration of 20M), the HDAC enzyme was diluted to the appropriate concentration, then added different concentrations of the test compounds and acted at 37 ? 30 minutes, and then added the same volume of 2-times concentration substrate developing solution (developer), incubated at room temperature for 15 minutes. Finally, the last reading measured with a microplate plate reader, excitation light was 360 nm, the emitted light was 460 nm, data processing software was Prime 4, and the results are shown in Table 1.
# [2] = system: BGC-823 (human gastric cancer cells); test: MTT cancer cell growth inhibition; format: cell-based; settings: 72 hours incubation
# Description: (§1) MTT assay principle is yellow MTT can penetrate membrane into the cell, succinic dehydrogenase of the mitochondria in living cells can make exogenous MTT reduction of insoluble in water of blue-violet acicular formazan for crystallization and deposition in the cell, crystallization can be dissolved dimethyl sulfoxide (DMSO) solution, detected its absorbance at 490 nm/570 nm wavelength by enzyme-linked immunosorbent assay, which can reflect the number of cells.
# (§2) Using DMEM+10% FBS culture medium or using 1640+10% FBS culture, respectively.
# (§3) Experimental group: 190 μl cell suspension+10 μl different concentrations of drugs (the final concentration is 10^−5˜10^−10 M)
# (§4) a) Cells were seeded in 96-well plates with the inoculation of 1500/well, 190 μl/hole, 37° C., 5% of CO2 incubator overnight;
# (§5) b) The next day each well was added 10 μl of different drugs. The final concentration of drug was 10^−5˜10^−10 M, three parallel holes; 37° C., 5% CO2 culture incubator for 72 hours incubation;
# (§6) c) Per well was added 20 μl 5 mg/ml of MTT, 37° C., 5% CO2 culture incubator for 4 hours incubation;
# (§7) d) The supernatant was discarded. Each well was added 100 μl of DMSO and oscillation;
# (§8) e) 570 nm readings. Calculate cell viability. GI50 calculation based on the results.
# [3] = system: lncap (prostate cancer cells); test: MTT cancer cell growth inhibition; format: cell-based; settings: 72 hours incubation
# Description: as §1, §2, §3, §4, §5, §6, §7, §8
# [4] = system: DU145 (human prostate cancer cells); test: MTT cancer cell growth inhibition; format: cell-based; settings: 72 hours incubation
# Description: as §1, §2, §3, §4, §5, §6, §7, §8
# [5] = system: HT1080 (human fibrosarcoma cells); test: MTT cancer cell growth inhibition; format: cell-based; settings: 72 hours incubation
# Description: as §1, §2, §3, §4, §5, §6, §7, §8
# [6] = system: A549 (human lung cancer cells); test: MTT cancer cell growth inhibition; format: cell-based; settings: 72 hours incubation
# Description: as §1, §2, §3, §4, §5, §6, §7, §8
# [7] = system: PANC-1 (Pac-1, human pancreatic cancer cells); test: MTT cancer cell growth inhibition; format: cell-based; settings: 72 hours incubation
# Description: as §1, §2, §3, §4, §5, §6, §7, §8
# [8] = system: MOLT-4 (human acute lymphoblastic leukemia cells); test: MTT cancer cell growth inhibition; format: cell-based; settings: 72 hours incubation
# Description: as §1, §2, §3, §4, §5, §6, §7, §8
# [9] = system: Hela (human cervical cancer cells); test: MTT cancer cell growth inhibition; format: cell-based; settings: 72 hours incubation
# Description: as §1, §2, §3, §4, §5, §6, §7, §8
# [10] = biological target: HDAC3 (Homo sapiens, UniProt O15379); test: HDAC biochemical activity measurement (fluorescent substrate deacetylation); settings: IC50 (μM) HDAC3, HDAC3 enzyme, 37°, 30 minutes
# Description: (§10) Measurement principle: The chemical activity of the compound is determined according to the degree of deacetylation inhibition of the HDAC enzyme. This experiment measured the degree of deacetylation related to tumor proliferation and metastasis of HDAC1, HDAC2, HDAC3, HDAC8, HDAC11 five subtypes HDAC enzymes. After the substrate containing an acetylated lysine side chain and HDAC enzyme are labeled with a fluorescent label, the fluorescent substrate is de acetyl. The fluorescent labeled substrate is cleaved by the enzyme, and the fluorescent substance is released, which generates 460 nm emission light under the excitation of 360 nm light.
# as §9
# [11] = biological target: HDAC1 (Homo sapiens, UniProt Q13547); test: as above; settings: HDAC1 enzyme, 37°, 30 minutes
# Description: as §10, §9
# [12] = system: U937 (human leukemia cells); test: MTT cancer cell growth inhibition; format: cell-based; settings: 72 hours incubation
# Description: as §1, §2, §3, §4, §5, §6, §7, §8
# [13] = system: MCF-7 (human breast cancer cells); test: MTT cancer cell growth inhibition; format: cell-based; settings: 72 hours incubation, MCF-7 cells
# Description: as §1, §2, §3, §4, §5, §6, §7, §8
# [14] = biological target: T2, HDAC11 (Homo sapiens, UniProt Q96DB2); test: HDAC biochemical activity measurement (fluorescent substrate deacetylation); settings: IC50 (μM) HDAC11, HDAC11 enzyme, 37°, 30 minutes
# T2 sequence (Q96DB2 1-347): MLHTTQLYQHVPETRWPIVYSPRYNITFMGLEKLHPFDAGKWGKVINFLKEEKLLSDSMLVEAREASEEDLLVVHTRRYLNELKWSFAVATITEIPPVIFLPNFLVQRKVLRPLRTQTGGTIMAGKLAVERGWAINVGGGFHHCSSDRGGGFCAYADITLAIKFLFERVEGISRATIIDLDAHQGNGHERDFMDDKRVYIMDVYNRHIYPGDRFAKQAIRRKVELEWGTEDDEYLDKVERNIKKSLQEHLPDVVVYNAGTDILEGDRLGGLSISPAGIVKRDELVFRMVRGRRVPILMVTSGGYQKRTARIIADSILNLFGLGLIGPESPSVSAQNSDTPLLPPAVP
# Description: as §10, §9
# [15] = biological target: HDAC2 (Homo sapiens, UniProt Q92769); test: as above; settings: HDAC2 enzyme, 37°, 30 minutes
# Description: as §10, §9
# [16] = biological target: T3, HDAC8 (Homo sapiens, UniProt Q9BY41); test: as above; settings: HDAC8 enzyme, 37°, 30 minutes
# T3 sequence (Q9BY41 1-377): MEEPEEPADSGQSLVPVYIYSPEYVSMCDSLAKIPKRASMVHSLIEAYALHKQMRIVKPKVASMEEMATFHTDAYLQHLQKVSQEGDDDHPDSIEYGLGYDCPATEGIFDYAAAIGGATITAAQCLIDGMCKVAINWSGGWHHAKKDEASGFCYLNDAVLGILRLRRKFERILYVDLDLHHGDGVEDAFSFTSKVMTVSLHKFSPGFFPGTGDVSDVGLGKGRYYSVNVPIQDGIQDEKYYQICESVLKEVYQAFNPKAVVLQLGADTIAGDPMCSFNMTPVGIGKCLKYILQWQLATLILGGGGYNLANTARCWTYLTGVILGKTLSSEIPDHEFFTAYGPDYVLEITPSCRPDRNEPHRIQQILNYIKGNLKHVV
# Description: as §10, §9
# [17] = system: N-87 (human gastric cancer cells); test: MTT cancer cell growth inhibition; format: cell-based; settings: 72 h, N-87 cells, 72 hours incubation
# Description: as §1, §2, §3, §4, §5, §6, §7, §8
# Chain of HDAC2 (Q92769 whole entry, species assumed): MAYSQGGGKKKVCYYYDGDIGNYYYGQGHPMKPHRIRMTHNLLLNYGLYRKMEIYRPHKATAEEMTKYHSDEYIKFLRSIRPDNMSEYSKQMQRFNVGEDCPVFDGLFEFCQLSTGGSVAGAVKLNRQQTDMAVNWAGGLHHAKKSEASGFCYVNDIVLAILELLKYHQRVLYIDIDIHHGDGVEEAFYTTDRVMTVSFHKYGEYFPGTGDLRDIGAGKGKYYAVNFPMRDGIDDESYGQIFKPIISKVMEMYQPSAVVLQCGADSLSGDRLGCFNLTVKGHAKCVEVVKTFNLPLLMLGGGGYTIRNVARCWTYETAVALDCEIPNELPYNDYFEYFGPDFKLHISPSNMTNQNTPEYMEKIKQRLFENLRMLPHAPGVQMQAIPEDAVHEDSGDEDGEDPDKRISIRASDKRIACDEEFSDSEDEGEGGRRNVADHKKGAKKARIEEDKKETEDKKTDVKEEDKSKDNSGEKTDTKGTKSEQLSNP
# Chain of HDAC3 (O15379 whole entry, species assumed): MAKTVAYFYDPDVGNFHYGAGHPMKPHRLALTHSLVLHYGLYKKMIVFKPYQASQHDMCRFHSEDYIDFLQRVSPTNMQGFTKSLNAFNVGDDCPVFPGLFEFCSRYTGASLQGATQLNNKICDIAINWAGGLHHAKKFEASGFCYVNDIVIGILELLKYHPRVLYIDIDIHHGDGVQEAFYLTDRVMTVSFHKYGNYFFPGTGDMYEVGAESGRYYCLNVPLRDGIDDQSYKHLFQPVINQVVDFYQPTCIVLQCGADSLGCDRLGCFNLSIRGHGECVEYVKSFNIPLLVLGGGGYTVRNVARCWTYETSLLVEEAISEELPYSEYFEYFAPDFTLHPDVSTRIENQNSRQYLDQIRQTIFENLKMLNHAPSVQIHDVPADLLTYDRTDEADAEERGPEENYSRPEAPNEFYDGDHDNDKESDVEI
# Chain of HDAC3 (Q9Y618 395-489 partner limits assumed, species assumed): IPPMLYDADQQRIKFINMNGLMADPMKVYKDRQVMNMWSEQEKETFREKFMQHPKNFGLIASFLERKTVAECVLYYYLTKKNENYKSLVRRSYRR
# Chain of HDAC1 (Q13547 whole entry, species assumed): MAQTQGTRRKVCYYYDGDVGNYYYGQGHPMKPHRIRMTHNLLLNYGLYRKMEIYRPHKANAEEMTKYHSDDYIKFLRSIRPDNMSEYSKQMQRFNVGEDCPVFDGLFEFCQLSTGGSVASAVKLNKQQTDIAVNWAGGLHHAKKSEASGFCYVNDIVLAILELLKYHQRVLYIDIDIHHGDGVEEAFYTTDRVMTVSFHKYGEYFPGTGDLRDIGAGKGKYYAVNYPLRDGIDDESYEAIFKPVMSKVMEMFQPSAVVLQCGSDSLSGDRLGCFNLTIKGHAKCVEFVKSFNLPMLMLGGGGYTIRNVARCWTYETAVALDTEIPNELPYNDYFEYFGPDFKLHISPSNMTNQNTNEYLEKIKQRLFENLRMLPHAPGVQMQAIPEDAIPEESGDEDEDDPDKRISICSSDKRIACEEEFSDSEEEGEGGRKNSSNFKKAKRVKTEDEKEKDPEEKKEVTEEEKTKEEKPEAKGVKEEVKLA
smiles,measurement,setting,value
C/C=C1\NC(=O)c2nc(F)cc(n2)CNC(=O)C[C@@H](/C=C/CCSC(C)=O)OC(=O)[C@H](C(C)C)NC1=O [Compound 98],IC50 (μM) HDAC7,[1],no activity
same,GI50,"[2]; drug concentration required for 50% of cell growth inhibition, read-out: GI50 (μM) BGC8",0.052 µM
same,GI50,"[3]; drug concentration required for 50% of cell growth inhibition, read-out: GI50 (μM) lncap",0.025 µM
same,GI50,"[4]; drug concentration required for 50% of cell growth inhibition, read-out: GI50 (μM) Du14",0.042 µM
same,GI50,"[5]; drug concentration required for 50% of cell growth inhibition, read-out: GI50 (μM) HT10",0.083 µM
same,GI50,"[6]; drug concentration required for 50% of cell growth inhibition, read-out: GI50 (μM) A549",0.601 µM
same,GI50,"[7]; drug concentration required for 50% of cell growth inhibition, read-out: GI50 (μM) PAN",0.083 µM
same,GI50,"[8]; drug concentration required for 50% of cell growth inhibition, read-out: GI50 (μM) Molt-",0.025 µM
same,GI50,"[9]; drug concentration required for 50% of cell growth inhibition, read-out: GI50 (μM) Hela",0.052 µM
C/C=C1\NC(=O)c2ccc(SC)c(n2)CNC(=O)C[C@@H](/C=C/CCSC(=O)CCC)OC(=O)[C@H](C(C)C)NC1=O [Compound 161],IC50,[10],0.063 µM
same,IC50,[11],0.061 µM
same,GI50,"[2]; Homo sapiens, BGC-823, 72 h, BGC-823 cells, read-out: GI50 BGC8",0.029 µM
same,GI50,"[12]; Homo sapiens, U-937, 72 h",65 nM
same,GI50,"[3]; Homo sapiens, LNCaP, 72 h, lncap cells, read-out: GI50 lncap",0.079 µM
same,GI50,"[4]; Homo sapiens, DU-145, 72 h, DU145 cells, read-out: GI50 Du14",0.023 µM
same,GI50,"[5]; Homo sapiens, HT-1080, 72 h, HT1080 cells, read-out: GI50 HT10",0.057 µM
same,GI50,"[6]; Homo sapiens, A549, 72 h, A549 cells, read-out: GI50 A549",0.083 µM
same,GI50,"[7]; Homo sapiens, PANC-1, 72 h, PANC-1 cells, read-out: GI50 PAN",0.011 µM
same,GI50,"[13]; Homo sapiens, MCF7, 72 h",73 nM
same,GI50,"[8]; Homo sapiens, MOLT-4, 72 h, MOLT-4 cells, read-out: GI50 Molt-",0.032 µM
same,GI50,"[9]; Homo sapiens, HeLa, 72 h, Hela cells, read-out: GI50 Hela",0.012 µM
same,IC50,[14],0.086 µM
same,IC50,[15],0.033 µM
same,IC50,[16],0.062 µM
C/C=C1\NC(=O)c2ccc(F)c(n2)CNC(=O)C[C@@H](/C=C/CCSC(C)=O)OC(=O)[C@H](C(C)C)NC1=O [Compound 95],GI50,[17],23 nM
C/C=C1\NC(=O)c2nc(cc(SC)n2)CNC(=O)C[C@@H](/C=C/CCSC(C)=O)OC(=O)[C@H](C(C)C)NC1=O [Compound 216],IC50 (μM) HDAC7,[1],no activity
same,GI50,"[2]; BGC-823 cells, read-out: GI50 BGC8",0.066 µM
same,GI50,[12],86 nM
same,GI50,"[3]; lncap cells, read-out: GI50 lncap",0.016 µM
same,GI50,"[4]; DU145 cells, read-out: GI50 Du14",0.029 µM
same,GI50,"[5]; HT1080 cells, read-out: GI50 HT10",0.058 µM
same,GI50,"[7]; PANC-1 cells, read-out: GI50 PAN",0.021 µM
same,GI50,[13],55 nM
same,GI50,"[8]; MOLT-4 cells, read-out: GI50 Molt-",0.046 µM
same,GI50,"[9]; Hela cells, read-out: GI50 Hela",0.076 µM
C/C=C1\NC(=O)c2cccc(n2)CNC(=O)C[C@@H](/C=C/CCSC(=O)CCCCCCC)OC(=O)[C@H](C(C)C)NC1=O [Compound 1],GI50,"[8]; Homo sapiens, MOLT-4, 72 h, drug concentration required for 50% of cell growth inhibition, read-out: GI50 (μM) Molt-",0.005 µM
